Data set [1] addresses muscarinic receptors (cerebral cortex). Briefly: Binding to muscarinic receptors, 3H-N-methylscopolamine displacement, cerebral cortex. Also noted: species or system rat (male Sprague-Dawley). As to conditions: rat cerebral cortex homogenate 1:3000, 0.3 n molar 3H-NMS, pH 7.4, 30° C., 45 minutes; read-out: Receptor binding tests IC50 Cortex. On the procedure:
(§1) 2. Studies of Binding to Muscarinic Receptors: Determination of the IC50 value
(§2) The organ donors were male Sprague-Dawley rats with a body weight of from 180 to 220 gm. After the heart, stomach and cerebral cortex had been removed, the remainder of the operation was carried out in ice-cold Hepes-HCl buffer (pH 7.4; 100 m molar NaCl, 10 m molar MgCl2). The smooth muscle of the fundus of the stomach was separated from the mucous membrane of the stomach and subjected to preliminary homogenization. The whole heart was cut up with scissors. All the organs were then homogenized in a Potter apparatus.
(§3) For the binding test, the homogenized organs were diluted as follows:
(§4) The homogenized organ preparations were incubated at a specific concentration of the radioligand and with a series of concentrations of the non-radioactive test substances in an Eppendorf centrifuge tube at 30° C. The duration of incubation was 45 minutes. 0.3 n molar ^3 H-N-methylscopolamine (^3 H-NMS) was used as the radioligand. After incubation had been brought to an end by centrifuging at 14,000 g, the radioactivity in the pellet was determined. It represents the sum of the specific and non-specific binding of ^3 H-NMS. The proportion of non-specific binding was defined as the radioactivity which was bound in the presence of 1μ molar quinuclidinyl benzylate. Four measurements were taken in each case. The IC50 values of the nonlabelled test substances were determined graphically. They represent the concentration of test substance at which the specific binding of ^3 H-NMS to the muscarinic receptors in the various organs was inhibited by 50%.

In data set [2] the target is muscarinic receptors (smooth muscle of the fundus of the stomach). In words: Binding to muscarinic receptors, 3H-N-methylscopolamine displacement, smooth muscle of fundus of stomach. Also noted: species or system rat (male Sprague-Dawley). As to conditions: rat stomach fundus smooth muscle homogenate 1:100, 0.3 n molar 3H-NMS, pH 7.4, 30° C., 45 minutes; read-out: Receptor binding tests IC50 Smooth muscle fundus of stomach. On the procedure: as §1, §2, §3
Smooth muscle of the fundus of the stomach--1: 100
as §4

Data set [3] concerns the target T1, muscarinic receptors (heart) (Rattus norvegicus, UniProt P10980).
T1 construct: All the organs were then homogenized in a Potter apparatus; from tissue; host or cells: whole heart of male Sprague-Dawley rats, homogenate diluted 1:250
T1 sequence (P10980 1-466): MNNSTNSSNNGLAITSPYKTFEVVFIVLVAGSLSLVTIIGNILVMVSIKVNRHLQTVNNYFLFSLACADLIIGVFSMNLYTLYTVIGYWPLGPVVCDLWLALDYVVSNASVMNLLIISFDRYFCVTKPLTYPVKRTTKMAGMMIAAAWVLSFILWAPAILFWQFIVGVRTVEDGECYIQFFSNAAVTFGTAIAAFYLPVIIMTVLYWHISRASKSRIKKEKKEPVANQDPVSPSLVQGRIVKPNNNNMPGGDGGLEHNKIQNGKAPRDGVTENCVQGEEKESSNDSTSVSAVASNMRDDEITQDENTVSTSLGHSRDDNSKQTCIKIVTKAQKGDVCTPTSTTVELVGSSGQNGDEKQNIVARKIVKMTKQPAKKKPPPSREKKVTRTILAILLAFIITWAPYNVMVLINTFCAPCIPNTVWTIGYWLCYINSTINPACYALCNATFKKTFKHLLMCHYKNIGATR
Briefly: Binding to muscarinic receptors, 3H-N-methylscopolamine displacement, whole heart. Also noted: species or system rat (male Sprague-Dawley). The settings on record: rat whole heart homogenate 1:250, 0.3 n molar 3H-NMS, pH 7.4, 30° C., 45 minutes; read-out: Receptor binding tests IC50 Heart. On the procedure: as §1, §2, §3, §4

Data set [4] deals with oxotremorine-induced lesions in mucous membrane of stomach (muscarinic receptors). In words: Oxotremorine test: protection against oxotremorine-induced lesions of the gastric mucous membrane (anti-ulcerogenic effect). As to conditions: iv, rat, 0.62 mg/kg i.v. oxotremorine, 1 mg/kg oral neostigmine; for ED50: ED50, i.v.; for ED70: ED70, i.v. In kind it is in vivo, rat (female albino, Crl:COBS-CD (SD) BR). From the text:
(§5) Investigation of the Selectivity of the Antimuscarinic Activity
(§6) Oxotremorine, a specific agonist for muscarinic receptors, produces lesions in the mucous membrane of the stomach in rats and increases their secretion of saliva. This test method was chosen so that any selective activity of an antimuscarinic substance on the stomach could be identified.
(§7) Ten female albino rats (of the Crl:COBS-CD (SD) BR strain) with a body weight of from 120 to 150 gm were used in each treatment group and were kept without food for 24 hours before the start of the test, but given free access to drinking water.
(§8) In order to determine, in preliminary tests, the muscarinic effect of oxotremorine on each of the symptoms studied, a dosage/activity curve was drawn up with at least three dosages for each symptom.
(§9) When testing the antimuscarinic substances, the dosage of oxotremorine which triggered the symptom in question in 90 to 100% of the animals in the preliminary tests was used.
Lesion in mucous membrane of stomach: 0.62 mg/kg i.v.
Each antimuscarinic substance was administered intravenously in uniformly graduated doses 15 minutes before the oxotremorine was administered. Control groups were given corresponding quantities of the solvent and suspending agent instead of the test substance.
(§10) The ED50 values were determined using the method described by LITCHFIELD and WILCOXON [J. Pharmacol. Exp.Ther. 96, 99, (1949)].
The effects on lesions of the mucous membrane of the stomach were evaluated as follows:
The lesions of the gastric mucous membrane were produced by intravenous injection of 0.62 mg/kg of oxotremorin 30 minutes after the oral administration of 1 mg/kg of neostigmine (a cholinesterase inhibitor). 60 minutes after the administration of the neostigmine, the animals were killed, the stomachs were removed, opened and examined for the presence of any lesions in the mucous membrane. The protective effect of the test substances was expressed as the percentage inhibition (percentage of animals without lesions). The ED50 and ED70 values were determined using the method of LITCHFIELD and WILCOXON (supra).

The subject of data set [5] is oxotremorine-induced secretion of saliva (muscarinic receptors). Briefly: Oxotremorine test: inhibition of oxotremorine-induced secretion of saliva. The data set is classed as in vivo, rat (female albino, Crl:COBS-CD (SD) BR). The settings on record: iv, 0.25 h; i.v., rat, 15 minutes before 0.083 mg/kg i.v. oxotremorine; read-out: Oxotremorine test Inhibition of salivation ED50.
Text: as §5, §6, §7, §8, §9
Secretion of saliva: 0.083 mg/kg i.v.
Each antimuscarinic substance was administered intravenously in uniformly graduated doses 15 minutes before the oxotremorine was administered. Control groups were given corresponding quantities of the solvent and suspending agent instead of the test substance. […]
as §10

Data set [6] in a line: Mydriasis: effect on pupil size in rats. The settings on record: in vivo, iv, rat, pupil size observed for 10 minutes. On the procedure: The effect of the test substances on the pupil size in rats was investigated as follows:
The substances were administered intravenously to groups of 10 animals in at least three uniformly graduated doses. […] The percentage of test animals in which mydriasis occurred was determined. The ED50 values were again determined using the method of LITCHFIELD and WILCOXON (supra).

One may read the IC50 as the midpoint of a concentration-inhibition curve. As a reminder, the ED50 is the midpoint of the dose-response relation. For the compound `CN1CCC(NC(=O)N2c3ccccc3NC(=O)c3cscc32)CC1` [B, 4,9-Dihydro-4-{[(1-methyl-4-piperidinyl)amino]carbonyl}-10H-thieno[3,4-b][1,5]benzodiazepin-10-one], the IC50 in data set [1] came out at 30 nM; in data set [2] it was 300 nM; in data set [3] it was 220 nM. Also, the median effective dose (ED50) came out at 0.017 mg/kg in data set [4] and 0.04 mg/kg in data set [5]. In addition, in data set [4], the ED70 was 0.044 mg/kg. In addition, in data set [6], the ED50 at 10 min is 0.037 mg/kg.

As to `CN1CCC(OC(=O)N2c3ccccc3NC(=O)c3cscc32)CC1` [A, 4,9-Dihydro-4-{[(1-methyl-4-piperidinyl)oxy]carbonyl}-10H-thieno[3,4-b][1,5]benzodiazepin-10-one], the concentration for half-maximal inhibition (IC50) in data set [1] was 40 nM; in data set [2], 200 nM; in data set [3], 180 nM. For the same compound, the ED50 was determined as 0.017 mg/kg in data set [4] and 0.1 mg/kg in data set [5]. In addition, the ED70 in data set [4] amounted to 0.025 mg/kg. This compound also registered a median effective dose (ED50) at 10 min in data set [6] of 0.11 mg/kg.

On to `CN1CCN(NC(=O)N2c3ccccc3NC(=O)c3cscc32)CC1` [C, 4,9-Dihydro-4-{[(4-methyl-1-piperazinyl)amino]carbonyl}-10H-thieno[3,4-b][1,5]benzodiazepin-10-one], for which the figures for the concentration for half-maximal inhibition (IC50) in data set [1], in data set [2] and in data set [3] were 20 nM, 200 nM and 90 nM, respectively. Also, the ED70 in data set [4] came to 0.019 mg/kg. For the same compound, the median effective dose (ED50) at 10 min in data set [6] turned out to be 0.03 mg/kg.

Values taken from patent publication US4410527A, “Substituted thienobenzodiazepinones and salts thereof” (Dr. Karl Thomae Gesellschaft mit beschrankter Haftung, priority 1982, dated 1983).
